From ChEMBL document CHEMBL1201862, “PubChem BioAssay data set” (2004)
Activity calls are given as the source filed them. Cut-off read from the data, not from the text of the source, for most assays here: actives have a measured IC50 and inactives only a lower limit.

Assays:
Type in all cases: functional
[1] = biological target: T1, Sentrin-specific protease 8 (Homo sapiens, UniProt Q96LD8); experiment: SENP8 protease inhibitors, SAR follow-up, biochemical, luminescence, set 2 (AID 588601)
T1 sequence (Q96LD8 whole entry): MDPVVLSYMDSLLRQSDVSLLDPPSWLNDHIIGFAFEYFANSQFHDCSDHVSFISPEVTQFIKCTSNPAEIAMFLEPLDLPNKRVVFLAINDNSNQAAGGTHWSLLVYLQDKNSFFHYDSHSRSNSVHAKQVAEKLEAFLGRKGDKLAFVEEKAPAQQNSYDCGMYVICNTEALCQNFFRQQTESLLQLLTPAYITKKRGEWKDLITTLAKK

Caspase-3 [2] = biological target: T2, Caspase-3 (Homo sapiens, UniProt P42574); experiment: caspase-3 inhibitors as off-family protease, SAR follow-up, selectivity assay for SENP protease inhibitor project, biochemical, luminescence, set 2 (AID 588599)
T2 sequence (P42574 whole entry): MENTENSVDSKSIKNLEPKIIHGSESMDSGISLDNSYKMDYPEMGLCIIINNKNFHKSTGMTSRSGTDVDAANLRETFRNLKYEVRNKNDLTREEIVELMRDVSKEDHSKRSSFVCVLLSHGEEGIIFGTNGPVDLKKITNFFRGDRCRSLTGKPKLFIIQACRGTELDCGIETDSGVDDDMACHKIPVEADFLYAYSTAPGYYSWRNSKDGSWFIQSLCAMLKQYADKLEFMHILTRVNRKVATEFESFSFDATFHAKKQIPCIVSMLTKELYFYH

[3] = biological target: T3, Sentrin-specific protease 6 (Homo sapiens, UniProt Q9GZR1); experiment: SENP6 protease inhibitors, SAR follow-up, biochemical, luminescence, set 2 (AID 588598)
T3 sequence (Q9GZR1 whole entry): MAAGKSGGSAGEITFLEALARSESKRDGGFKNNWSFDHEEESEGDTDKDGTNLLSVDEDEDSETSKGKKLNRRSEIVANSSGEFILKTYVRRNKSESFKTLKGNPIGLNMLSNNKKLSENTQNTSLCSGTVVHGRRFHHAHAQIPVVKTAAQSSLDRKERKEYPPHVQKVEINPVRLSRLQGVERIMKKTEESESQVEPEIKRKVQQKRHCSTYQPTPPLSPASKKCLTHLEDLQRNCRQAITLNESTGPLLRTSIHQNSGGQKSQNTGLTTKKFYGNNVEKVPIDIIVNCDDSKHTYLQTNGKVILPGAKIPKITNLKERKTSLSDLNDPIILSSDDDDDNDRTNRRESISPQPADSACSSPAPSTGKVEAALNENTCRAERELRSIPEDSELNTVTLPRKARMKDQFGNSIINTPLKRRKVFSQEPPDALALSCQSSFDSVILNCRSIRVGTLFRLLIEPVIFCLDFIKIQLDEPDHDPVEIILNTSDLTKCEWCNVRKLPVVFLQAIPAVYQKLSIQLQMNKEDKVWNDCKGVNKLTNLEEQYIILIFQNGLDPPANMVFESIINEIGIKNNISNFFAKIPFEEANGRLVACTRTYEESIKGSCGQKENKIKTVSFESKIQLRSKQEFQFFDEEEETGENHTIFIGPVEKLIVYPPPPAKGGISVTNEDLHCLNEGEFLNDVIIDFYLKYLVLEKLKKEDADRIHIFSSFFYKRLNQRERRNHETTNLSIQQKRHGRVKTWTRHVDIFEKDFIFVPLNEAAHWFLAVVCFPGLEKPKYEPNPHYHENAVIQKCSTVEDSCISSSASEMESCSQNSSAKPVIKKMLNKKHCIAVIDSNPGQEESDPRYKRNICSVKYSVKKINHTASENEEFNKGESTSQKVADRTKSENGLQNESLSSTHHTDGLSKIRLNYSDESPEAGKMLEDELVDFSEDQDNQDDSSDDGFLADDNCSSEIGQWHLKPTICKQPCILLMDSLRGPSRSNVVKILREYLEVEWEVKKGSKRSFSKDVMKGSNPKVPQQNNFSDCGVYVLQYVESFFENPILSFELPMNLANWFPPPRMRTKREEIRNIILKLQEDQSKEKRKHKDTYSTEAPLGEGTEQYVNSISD

[4] = biological target: T4, Sentrin-specific protease 7 (Homo sapiens, UniProt Q9BQF6); experiment: SENP7 protease inhibitors, SAR follow-up, biochemical, luminescence, set 2 (AID 588600)
T4 sequence (Q9BQF6 whole entry): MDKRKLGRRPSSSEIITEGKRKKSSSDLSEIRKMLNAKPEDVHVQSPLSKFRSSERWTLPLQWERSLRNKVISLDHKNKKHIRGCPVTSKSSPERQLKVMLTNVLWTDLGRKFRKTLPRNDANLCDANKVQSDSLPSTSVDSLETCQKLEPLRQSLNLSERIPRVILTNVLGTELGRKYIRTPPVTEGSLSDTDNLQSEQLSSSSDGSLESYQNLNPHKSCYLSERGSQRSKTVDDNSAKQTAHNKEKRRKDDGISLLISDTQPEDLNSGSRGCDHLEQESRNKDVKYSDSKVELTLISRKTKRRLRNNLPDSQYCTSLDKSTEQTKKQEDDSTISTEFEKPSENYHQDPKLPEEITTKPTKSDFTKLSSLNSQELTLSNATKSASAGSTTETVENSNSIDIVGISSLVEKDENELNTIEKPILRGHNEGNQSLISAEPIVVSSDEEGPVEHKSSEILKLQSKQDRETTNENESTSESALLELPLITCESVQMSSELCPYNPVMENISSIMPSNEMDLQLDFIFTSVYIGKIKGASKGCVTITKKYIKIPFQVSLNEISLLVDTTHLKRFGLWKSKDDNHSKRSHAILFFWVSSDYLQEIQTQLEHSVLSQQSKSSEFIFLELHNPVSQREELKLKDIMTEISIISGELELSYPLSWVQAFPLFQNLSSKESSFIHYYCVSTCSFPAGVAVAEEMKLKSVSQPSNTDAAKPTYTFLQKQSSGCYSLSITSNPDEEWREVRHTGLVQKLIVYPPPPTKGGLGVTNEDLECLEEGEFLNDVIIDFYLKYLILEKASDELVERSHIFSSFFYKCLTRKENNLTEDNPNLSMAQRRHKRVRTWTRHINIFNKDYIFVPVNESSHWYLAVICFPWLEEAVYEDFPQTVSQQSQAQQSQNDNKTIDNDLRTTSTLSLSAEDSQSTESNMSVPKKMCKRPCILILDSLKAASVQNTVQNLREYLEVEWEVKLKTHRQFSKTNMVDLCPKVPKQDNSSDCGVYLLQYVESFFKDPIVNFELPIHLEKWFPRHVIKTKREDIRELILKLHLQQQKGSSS

Aurora kinase A = biological target: T5, Aurora kinase A (Homo sapiens, UniProt O14965);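 note: value from the Navigating the Kinome kinase panel profiling, panel entry STK6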
T5 sequence (O14965 whole entry): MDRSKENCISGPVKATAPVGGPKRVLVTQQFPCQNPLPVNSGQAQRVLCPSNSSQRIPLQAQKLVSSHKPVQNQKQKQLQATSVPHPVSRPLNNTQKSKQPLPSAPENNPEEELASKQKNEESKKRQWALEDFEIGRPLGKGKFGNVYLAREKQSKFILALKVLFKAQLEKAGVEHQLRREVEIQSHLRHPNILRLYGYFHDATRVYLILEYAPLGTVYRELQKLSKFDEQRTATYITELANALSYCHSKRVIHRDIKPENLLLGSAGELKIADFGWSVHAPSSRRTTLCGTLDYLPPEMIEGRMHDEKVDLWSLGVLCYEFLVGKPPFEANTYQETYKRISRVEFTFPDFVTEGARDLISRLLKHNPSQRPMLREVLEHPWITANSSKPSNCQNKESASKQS

Aurora kinase B = Aurora kinase B (Homo sapiens, UniProt Q96GD4)
Chain of Aurora kinase B (Q96GD4 whole entry): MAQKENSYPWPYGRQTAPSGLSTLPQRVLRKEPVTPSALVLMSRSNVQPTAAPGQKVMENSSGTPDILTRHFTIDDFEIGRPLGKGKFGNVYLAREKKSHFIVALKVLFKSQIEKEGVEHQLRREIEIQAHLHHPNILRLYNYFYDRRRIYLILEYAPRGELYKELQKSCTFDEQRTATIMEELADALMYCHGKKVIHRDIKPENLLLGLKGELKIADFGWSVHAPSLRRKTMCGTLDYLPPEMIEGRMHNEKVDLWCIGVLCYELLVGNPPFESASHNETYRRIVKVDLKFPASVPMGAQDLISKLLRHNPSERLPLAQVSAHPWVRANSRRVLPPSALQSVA

[5] = biological target: Vascular endothelial growth factor receptor 2 (Homo sapiens, UniProt P35968)
Chain of Vascular endothelial growth factor receptor 2 (P35968 whole entry): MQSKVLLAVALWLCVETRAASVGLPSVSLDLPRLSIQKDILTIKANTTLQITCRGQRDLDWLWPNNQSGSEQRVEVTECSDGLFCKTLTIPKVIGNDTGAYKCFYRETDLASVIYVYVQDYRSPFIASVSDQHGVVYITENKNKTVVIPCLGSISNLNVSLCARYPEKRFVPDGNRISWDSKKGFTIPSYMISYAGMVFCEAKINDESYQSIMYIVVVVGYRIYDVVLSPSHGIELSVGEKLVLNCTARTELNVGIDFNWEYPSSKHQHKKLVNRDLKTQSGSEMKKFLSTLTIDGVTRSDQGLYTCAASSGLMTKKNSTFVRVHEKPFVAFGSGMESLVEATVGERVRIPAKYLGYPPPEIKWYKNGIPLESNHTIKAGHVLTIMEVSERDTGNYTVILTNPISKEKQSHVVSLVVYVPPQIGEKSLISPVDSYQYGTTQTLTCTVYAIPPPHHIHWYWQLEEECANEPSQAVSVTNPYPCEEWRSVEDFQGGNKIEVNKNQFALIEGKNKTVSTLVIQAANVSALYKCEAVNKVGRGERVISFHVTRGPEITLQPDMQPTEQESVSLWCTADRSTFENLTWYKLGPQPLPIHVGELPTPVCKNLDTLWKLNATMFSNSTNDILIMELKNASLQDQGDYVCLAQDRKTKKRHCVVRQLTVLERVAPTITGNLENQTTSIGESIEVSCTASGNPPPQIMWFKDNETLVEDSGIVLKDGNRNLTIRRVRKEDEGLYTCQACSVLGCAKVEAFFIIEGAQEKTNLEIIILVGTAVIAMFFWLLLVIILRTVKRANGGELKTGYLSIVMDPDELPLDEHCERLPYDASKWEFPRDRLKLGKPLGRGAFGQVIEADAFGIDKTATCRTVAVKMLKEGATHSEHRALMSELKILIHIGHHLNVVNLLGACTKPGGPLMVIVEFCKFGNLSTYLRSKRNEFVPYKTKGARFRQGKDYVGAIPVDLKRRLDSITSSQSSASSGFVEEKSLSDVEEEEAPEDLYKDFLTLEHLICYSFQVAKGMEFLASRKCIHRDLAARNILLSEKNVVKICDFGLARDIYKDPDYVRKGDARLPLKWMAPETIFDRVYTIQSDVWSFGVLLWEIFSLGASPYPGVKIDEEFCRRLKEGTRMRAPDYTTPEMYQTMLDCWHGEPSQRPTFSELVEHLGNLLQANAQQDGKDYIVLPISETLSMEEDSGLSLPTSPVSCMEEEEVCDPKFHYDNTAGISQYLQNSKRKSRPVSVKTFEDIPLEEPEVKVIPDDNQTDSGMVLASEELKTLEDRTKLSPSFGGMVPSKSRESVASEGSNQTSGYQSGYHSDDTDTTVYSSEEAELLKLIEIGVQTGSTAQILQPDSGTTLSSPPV

[6] = M. tuberculosis H37Rv growth inhibitors, H37Rv strain (AID 1626)
[7] = biological target: T6, Mitochondrial peptide methionine sulfoxide reductase (Bos taurus, UniProt P54149); experiment: Absorbance-based biochemical high throughput dose response assay for activators of Methionine sulfoxide reductase A (MsrA).
T6 sequence (P54149 whole entry): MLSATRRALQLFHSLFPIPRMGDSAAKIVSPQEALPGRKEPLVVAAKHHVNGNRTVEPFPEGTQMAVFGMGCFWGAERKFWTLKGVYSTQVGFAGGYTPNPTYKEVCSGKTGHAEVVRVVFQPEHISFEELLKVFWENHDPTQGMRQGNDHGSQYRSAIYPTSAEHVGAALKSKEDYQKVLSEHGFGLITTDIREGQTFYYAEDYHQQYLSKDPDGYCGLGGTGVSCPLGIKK

Caspase-3 [8] = biological target: T2, Caspase-3; experiment: SAR Analysis of small molecule inhibitors of Sentrin-specific proteases (SENPs) using a Caspase-3 Selectivity assay. [Related pubchem assays (depositor defined):AID2540, AID2599, AID434973, AID489001]
[9] = biological target: T3, Sentrin-specific protease 6; experiment: SAR Analysis of small molecule inhibitors of Sentrin-specific protease 6 (SENP6) using a Luminescent assay. [Related pubchem assays (depositor defined):AID2582, AID2599]
[10] = biological target: T4, Sentrin-specific protease 7; experiment: SENP7 protease inhibitors, SAR follow-up, biochemical, luminescence (AID 504497)
[11] = biological target: T1, Sentrin-specific protease 8; experiment: SENP8 protease inhibitors, SAR follow-up, biochemical, luminescence (AID 504501)
[12] = biological target: Ras and Rab interactor 1/Tyrosine-protein kinase ABL1 (Homo sapiens, UniProt P00519+Q13671);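 note: biochemical TR-FRET dose-response test measuring inhibition of binding between Rin1 and Abl proteins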
Chain of Ras and Rab interactor 1/Tyrosine-protein kinase ABL1 (P00519 whole entry): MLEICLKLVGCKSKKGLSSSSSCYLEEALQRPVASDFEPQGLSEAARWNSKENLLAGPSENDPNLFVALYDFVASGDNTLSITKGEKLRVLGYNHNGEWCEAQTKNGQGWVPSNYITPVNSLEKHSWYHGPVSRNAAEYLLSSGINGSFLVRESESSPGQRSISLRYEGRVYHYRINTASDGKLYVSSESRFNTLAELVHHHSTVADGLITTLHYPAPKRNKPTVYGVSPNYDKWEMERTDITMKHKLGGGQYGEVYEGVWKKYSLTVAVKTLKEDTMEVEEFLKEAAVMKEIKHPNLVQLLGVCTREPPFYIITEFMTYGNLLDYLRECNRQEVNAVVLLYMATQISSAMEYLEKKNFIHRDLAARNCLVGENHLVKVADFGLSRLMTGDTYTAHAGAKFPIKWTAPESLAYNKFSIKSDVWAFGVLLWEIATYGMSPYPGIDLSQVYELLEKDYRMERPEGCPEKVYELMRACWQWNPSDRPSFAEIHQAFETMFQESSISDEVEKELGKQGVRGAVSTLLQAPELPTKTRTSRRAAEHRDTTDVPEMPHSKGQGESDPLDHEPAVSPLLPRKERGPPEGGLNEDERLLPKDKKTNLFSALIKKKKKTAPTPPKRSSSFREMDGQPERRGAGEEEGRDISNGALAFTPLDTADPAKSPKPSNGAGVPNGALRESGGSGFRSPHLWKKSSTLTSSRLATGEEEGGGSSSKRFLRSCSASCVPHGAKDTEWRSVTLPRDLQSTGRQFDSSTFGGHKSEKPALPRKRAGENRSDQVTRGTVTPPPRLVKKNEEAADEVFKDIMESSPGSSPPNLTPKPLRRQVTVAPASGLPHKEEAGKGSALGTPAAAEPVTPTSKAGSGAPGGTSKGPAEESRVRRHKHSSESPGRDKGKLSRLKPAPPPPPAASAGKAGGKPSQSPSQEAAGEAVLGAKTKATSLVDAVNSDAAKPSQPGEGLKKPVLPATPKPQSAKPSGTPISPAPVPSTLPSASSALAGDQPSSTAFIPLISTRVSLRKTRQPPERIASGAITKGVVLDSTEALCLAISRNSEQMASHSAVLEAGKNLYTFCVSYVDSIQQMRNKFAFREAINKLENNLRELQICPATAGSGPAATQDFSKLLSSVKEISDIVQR
Chain of Ras and Rab interactor 1/Tyrosine-protein kinase ABL1 (Q13671 whole entry): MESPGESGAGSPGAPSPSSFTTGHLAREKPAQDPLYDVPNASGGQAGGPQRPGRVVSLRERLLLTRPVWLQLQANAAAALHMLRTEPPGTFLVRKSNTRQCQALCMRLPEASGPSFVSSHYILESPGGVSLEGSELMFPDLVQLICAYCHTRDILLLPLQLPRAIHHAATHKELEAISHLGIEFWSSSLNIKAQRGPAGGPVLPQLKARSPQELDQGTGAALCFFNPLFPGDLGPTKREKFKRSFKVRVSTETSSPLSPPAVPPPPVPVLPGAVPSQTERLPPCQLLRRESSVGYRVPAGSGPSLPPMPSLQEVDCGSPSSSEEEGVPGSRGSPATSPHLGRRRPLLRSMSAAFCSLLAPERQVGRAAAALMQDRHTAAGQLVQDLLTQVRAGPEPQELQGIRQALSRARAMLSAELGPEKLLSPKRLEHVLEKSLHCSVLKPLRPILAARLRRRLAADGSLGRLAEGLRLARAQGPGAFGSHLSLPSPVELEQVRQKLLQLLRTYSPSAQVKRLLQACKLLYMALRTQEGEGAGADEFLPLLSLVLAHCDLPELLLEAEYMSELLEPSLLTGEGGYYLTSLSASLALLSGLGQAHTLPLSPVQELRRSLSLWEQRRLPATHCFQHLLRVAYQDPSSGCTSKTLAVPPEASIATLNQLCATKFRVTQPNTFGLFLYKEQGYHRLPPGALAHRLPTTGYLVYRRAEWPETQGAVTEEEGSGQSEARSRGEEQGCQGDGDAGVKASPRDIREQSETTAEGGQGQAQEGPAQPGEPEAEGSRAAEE

[13] = biological target: T7, Apoptotic protease-activating factor 1 (Homo sapiens, UniProt O14727); experiment: SAR analysis of small molecule Activators of Apaf-1 in a Fluorescent assay.; details: read-out: EC50_Mean;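 note: caspase-3 cleavage of fluorogenic Rh110 DEVD substrate downstream of apoptosome activation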
T7 sequence (O14727 whole entry): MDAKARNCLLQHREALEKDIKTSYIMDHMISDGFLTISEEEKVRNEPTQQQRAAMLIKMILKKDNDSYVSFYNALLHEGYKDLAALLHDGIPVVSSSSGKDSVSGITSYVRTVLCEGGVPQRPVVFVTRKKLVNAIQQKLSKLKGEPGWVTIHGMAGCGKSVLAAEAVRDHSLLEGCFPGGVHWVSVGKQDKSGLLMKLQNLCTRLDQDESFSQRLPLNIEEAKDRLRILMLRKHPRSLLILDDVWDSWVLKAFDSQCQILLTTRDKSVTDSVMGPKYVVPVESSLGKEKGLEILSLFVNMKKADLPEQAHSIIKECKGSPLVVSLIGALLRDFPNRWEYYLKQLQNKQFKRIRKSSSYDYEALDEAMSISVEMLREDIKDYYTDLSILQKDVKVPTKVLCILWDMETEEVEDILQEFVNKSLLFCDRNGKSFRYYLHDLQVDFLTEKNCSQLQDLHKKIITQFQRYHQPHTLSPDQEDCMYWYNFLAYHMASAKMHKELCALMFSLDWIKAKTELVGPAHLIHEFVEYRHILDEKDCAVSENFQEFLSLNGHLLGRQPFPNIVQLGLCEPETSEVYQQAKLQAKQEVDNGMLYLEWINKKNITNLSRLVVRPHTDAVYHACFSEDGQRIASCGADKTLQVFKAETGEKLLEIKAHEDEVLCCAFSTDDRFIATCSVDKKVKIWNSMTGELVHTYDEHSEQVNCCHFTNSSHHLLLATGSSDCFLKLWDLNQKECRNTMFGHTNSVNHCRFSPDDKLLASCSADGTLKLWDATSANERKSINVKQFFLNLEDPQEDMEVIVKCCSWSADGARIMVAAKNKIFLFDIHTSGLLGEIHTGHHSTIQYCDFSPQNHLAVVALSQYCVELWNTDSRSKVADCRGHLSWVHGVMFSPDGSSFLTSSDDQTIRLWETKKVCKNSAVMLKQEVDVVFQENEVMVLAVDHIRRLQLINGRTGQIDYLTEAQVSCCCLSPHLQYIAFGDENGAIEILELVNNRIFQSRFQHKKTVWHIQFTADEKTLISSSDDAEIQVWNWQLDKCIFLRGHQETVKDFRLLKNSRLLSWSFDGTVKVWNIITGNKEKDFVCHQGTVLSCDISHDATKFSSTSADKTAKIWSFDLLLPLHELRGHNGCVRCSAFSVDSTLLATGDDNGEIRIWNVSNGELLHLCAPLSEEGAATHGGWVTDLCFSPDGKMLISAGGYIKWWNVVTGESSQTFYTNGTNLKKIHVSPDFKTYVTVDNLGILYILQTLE

For `O=C(N/N=C\c1c[nH]c2ccccc12)c1cccs1`, the IC50 [1] was 40.8 µM (active), the IC50 (Caspase-3 [2]) was 75.5 µM (active) and the IC50 [3] was 43.3 µM (active). For the same compound, the IC50 [4] was 34.4 µM (active).
For `CCCS(=O)(=O)Nc1ccc2c(c1)C(=NO)c1ccccc1-2`, the Ki (Aurora kinase A) was 2 µM (active), the Ki (Aurora kinase B) was 0.01 µM (active) and the Ki [5] was 1 µM (active).
In the case of `CCOc1ccc(NC(C(=O)Nc2cccc(C(C)=O)c2)c2ccccc2)cc1` (stereo not drawn), the IC50 [6] is reported as > 100 µM (active) and the EC50 [7] is reported as > 104 µM (inactive).
For `O=C(Nc1nc2ccc(Cl)cc2s1)c1sccc1Cl`, the IC50 (Caspase-3 [8]) was 0.73 µM (active), the IC50 [9] was 0.78 µM (active) and the IC50 [10] was 0.91 µM (active). The IC50 [1] was 9.04 µM (active), the IC50 (Caspase-3 [2]) was 0.755 µM (active) and the IC50 [3] was 15.4 µM (active). The IC50 [11] was 0.77 µM (active) and the IC50 [4] was 6.06 µM (active).
In the case of `CCC(C)(C)n1nnnc1C(c1cccnc1)N1CCCc2ccccc21` (stereo not drawn), the IC50 [12] is reported as 6.9 µM (active).
For `COc1cc(N2CC(C(=O)O)CC2=O)c(OC)cc1Cl` (stereo not drawn), the EC50 [13] was > 100 µM (inactive).
With `CN(C)S(=O)(=O)c1ccc2nc(NC(=O)c3c(F)cccc3F)sc2c1` the IC50 (Caspase-3 [8]) was > 99 µM (inactive), the IC50 [9] was > 99 µM (inactive) and the IC50 [10] was > 99 µM (inactive). For the same compound, the IC50 [11] was > 99 µM (inactive).
